Data published in US20230293539A1, “MLL1-WDR5 PROTEIN-PROTEIN INTERACTION INHIBITOR COMPOUNDS AND USES THEREOF” (HUYABIO International, LLC, priority 2022, published 2023).
pIC50: −log10 of the molar value.

Columns and labels:
SHP2 WT = SHP2 WT (Homo sapiens, UniProt Q06124); experiment: Selectivity panel (Table 3); type: biochemical
HDAC3 = HDAC3 (Homo sapiens, UniProt O15379); experiment: Selectivity panel (Table 3); type: biochemical
HDAC1 = HDAC1 (Homo sapiens, UniProt Q13547); experiment: Selectivity panel (Table 3); type: biochemical
Sequence of HDAC1 (Q13547 whole entry, species assumed): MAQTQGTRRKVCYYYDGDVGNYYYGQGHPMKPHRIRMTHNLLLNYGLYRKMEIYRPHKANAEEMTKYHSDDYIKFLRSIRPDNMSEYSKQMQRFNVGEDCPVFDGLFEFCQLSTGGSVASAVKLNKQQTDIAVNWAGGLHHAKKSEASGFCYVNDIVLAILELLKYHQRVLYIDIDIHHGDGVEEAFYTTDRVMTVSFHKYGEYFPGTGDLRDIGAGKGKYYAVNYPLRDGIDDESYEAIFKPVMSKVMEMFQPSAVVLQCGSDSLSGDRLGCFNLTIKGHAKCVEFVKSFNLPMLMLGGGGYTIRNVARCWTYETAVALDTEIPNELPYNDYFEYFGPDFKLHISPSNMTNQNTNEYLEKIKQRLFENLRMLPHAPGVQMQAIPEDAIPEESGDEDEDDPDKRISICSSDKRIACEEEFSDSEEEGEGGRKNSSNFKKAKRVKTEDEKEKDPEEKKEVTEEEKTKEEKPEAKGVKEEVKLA

MV 411 cells = experiment: Cell Viability Assay (CellTiter-Glo); type: cell-based; details: Homo sapiens, MV4-11, 72 hours, read-out: IC50 (anti-proliferative activity against leukemia cells)
Method: Cell lines and maintenance: All cell lines (MV 411) used for in vitro and in vivo studies were supplied as part of Wuxi AppTech cell bank. Cell lines were maintained in a medium supplemented with 10% heat inactivated fetal bovine serum at 37° C., in an atmosphere of 5% CO2, in air. The tumor cells were routinely subcultured twice weekly. The cells growing in an exponential growth phase were used for the in vitro cell potency and in vivo efficacy studies.
EXAMPLE 1: Cell Viability Assay: For cell cytotoxicity assays, 2000 cells/well were plated in 384-well plates. Twenty four hours after plating, cells were treated with inhibitors at the indicated compound concentrations. On Day 3 (72 hours), cells were lysed with CellTiter-Glo® Luminescent Cell Viability Assay reagent (Promega) and luminescence was read using the EnVision Multi-plate reader. To calculate IC50, a dose-response curve is generated using a nonlinear regression model with a sigmoidal dose response. The formula of surviving rate is shown below. IC50 values were automatically generated by GraphPad Prism 8.0. See FIG. 1A and FIG. 1B and Tables 3 and 4.

TCPTP = TCPTP (Homo sapiens, UniProt P17706); experiment: Selectivity panel (Table 3); type: biochemical
PTP1B = PTP1B (Homo sapiens, UniProt P18031); experiment: Selectivity panel (Table 3); type: biochemical
Sequence of PTP1B (P18031 whole entry, species assumed): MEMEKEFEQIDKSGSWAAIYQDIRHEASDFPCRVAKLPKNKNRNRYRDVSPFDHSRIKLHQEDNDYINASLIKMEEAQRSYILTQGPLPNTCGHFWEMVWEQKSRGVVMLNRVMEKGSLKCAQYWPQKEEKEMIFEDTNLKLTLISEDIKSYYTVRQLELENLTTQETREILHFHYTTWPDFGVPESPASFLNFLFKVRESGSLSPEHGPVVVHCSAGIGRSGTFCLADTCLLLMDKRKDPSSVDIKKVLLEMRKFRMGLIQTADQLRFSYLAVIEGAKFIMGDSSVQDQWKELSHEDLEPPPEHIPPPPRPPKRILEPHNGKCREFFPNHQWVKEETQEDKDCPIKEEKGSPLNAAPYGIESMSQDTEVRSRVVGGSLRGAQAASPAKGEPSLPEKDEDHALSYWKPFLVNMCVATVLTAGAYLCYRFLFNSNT

Liver S9 stability assay [1] = type: in vitro ADME, mouse
Method: (§1) Liver S9 stability assay: Test compounds (1 μM) and positive control were incubated with 5 mM GSH and liver S9 (1 mg protein/ml) from multiple species (including human, monkey, dog, rat and mouse) at 37° C. at 0, 10, 30, and 60 minutes in duplicate. After adding the stop solution, 100 μL of supernatant were analyzed by LC-MS/MS. The % remaining of test compound, T1/2 (min), and CLint (μL/min/mg) were calculated and were reported.

SHP2 D61G = SHP2 D61G (Homo sapiens, UniProt Q06124, D61G); experiment: Selectivity panel (Table 3); type: biochemical
TEAD2 = TEAD2 (Homo sapiens, UniProt Q15562); experiment: Selectivity panel (Table 3); type: binding
Sequence of TEAD2 (Q15562 whole entry, species assumed): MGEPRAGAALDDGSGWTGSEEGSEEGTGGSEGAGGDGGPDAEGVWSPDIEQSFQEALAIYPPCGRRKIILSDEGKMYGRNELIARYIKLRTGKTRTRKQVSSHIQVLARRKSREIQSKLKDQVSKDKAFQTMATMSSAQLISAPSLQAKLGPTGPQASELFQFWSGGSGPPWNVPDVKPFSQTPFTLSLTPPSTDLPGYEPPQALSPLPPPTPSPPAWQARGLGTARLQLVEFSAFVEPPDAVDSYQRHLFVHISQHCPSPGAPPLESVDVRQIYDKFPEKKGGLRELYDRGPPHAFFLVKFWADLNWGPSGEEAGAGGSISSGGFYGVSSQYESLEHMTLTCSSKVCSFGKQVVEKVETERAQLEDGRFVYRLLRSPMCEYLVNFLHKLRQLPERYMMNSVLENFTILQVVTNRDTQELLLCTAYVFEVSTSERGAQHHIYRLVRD

in vitro [2] = details: rat, plasma
Metabolite ID in plasma = type: in vitro ADME; details: HBI-2375 and metabolites in Rat plasma
GLS1 = GLS1 (Homo sapiens, UniProt O94925); experiment: Selectivity panel (Table 3); type: biochemical
Sequence of GLS1 (O94925 73-669 limits assumed, species assumed): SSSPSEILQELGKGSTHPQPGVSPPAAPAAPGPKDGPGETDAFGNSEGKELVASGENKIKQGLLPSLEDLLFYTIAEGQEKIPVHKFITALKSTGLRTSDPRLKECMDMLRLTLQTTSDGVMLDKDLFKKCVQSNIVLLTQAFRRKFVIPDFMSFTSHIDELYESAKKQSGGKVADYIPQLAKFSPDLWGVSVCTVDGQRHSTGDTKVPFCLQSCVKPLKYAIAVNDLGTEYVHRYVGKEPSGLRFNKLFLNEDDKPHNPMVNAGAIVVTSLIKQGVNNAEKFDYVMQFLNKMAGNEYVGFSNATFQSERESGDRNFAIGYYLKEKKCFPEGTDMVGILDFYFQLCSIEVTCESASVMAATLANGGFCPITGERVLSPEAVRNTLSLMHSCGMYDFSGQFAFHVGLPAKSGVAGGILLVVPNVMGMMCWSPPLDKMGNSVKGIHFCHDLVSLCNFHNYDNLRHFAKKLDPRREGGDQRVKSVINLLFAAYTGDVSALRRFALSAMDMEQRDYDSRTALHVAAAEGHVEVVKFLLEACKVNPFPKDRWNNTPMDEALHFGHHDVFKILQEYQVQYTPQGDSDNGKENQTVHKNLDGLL

HDAC2 = HDAC2 (Homo sapiens, UniProt Q92769); experiment: Selectivity panel (Table 3); type: biochemical
Sequence of HDAC2 (Q92769 whole entry, species assumed): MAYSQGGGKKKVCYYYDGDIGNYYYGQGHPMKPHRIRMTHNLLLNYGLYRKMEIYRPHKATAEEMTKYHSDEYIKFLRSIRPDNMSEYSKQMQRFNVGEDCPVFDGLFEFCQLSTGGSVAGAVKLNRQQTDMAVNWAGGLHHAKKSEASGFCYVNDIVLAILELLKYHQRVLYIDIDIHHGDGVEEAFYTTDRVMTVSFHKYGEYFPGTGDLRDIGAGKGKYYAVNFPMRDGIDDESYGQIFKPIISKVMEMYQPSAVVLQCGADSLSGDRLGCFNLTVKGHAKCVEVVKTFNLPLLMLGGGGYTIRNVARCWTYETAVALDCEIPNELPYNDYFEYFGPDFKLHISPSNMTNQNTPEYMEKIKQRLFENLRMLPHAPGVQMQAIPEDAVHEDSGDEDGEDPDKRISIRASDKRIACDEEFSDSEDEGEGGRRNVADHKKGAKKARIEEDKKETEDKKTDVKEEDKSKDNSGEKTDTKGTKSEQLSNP

BRD3-BD1 = target: T1, BRD3-BD1 (Homo sapiens, UniProt Q15059); experiment: Selectivity panel (Table 3); type: binding
T1 construct: BRD3-BD1
T1 sequence (Q15059 34-140 limits assumed): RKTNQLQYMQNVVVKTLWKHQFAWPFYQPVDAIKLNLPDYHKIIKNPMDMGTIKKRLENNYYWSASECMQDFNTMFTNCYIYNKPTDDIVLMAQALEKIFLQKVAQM

KRAS G12D = KRAS G12D (Homo sapiens, UniProt P01116, G12D); experiment: Selectivity panel (Table 3); type: binding
SHP2 E76K = SHP2 E76K (Homo sapiens, UniProt Q06124, E76K); experiment: Selectivity panel (Table 3); type: biochemical
Sequence of SHP2 E76K (Q06124 whole entry E76K): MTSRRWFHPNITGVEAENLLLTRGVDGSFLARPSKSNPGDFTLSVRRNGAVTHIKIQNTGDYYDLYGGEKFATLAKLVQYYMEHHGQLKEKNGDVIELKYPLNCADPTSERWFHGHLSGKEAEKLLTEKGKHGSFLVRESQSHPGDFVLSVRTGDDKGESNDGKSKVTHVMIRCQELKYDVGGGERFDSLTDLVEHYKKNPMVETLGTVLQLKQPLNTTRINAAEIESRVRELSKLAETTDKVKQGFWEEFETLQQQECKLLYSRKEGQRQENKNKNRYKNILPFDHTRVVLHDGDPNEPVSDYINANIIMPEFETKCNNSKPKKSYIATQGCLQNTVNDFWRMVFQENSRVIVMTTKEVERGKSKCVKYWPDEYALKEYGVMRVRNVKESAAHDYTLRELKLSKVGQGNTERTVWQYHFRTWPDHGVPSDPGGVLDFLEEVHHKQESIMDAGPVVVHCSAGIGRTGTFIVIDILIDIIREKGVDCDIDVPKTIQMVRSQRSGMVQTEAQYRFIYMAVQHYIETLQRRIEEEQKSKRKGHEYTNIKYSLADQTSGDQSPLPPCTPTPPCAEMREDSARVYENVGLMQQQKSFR

Liver S9 stability assay [3] = type: in vitro ADME, human
Method: as §1

[4] = Metabolite ID in Liver S9; type: in vitro ADME; details: HBI-2375 and metabolites in Monkey liver S9
hERG = hERG (Homo sapiens, UniProt Q12809); experiment: hERG IC50; type: cell-based
MALTI = MALTI (Homo sapiens, UniProt Q9UDY8); experiment: Selectivity panel (Table 3); type: biochemical
in vitro [5] = details: dog, plasma
[6] = WBS (whole blood stability) assay; type: in vitro ADME; details: for % Remaining after 60 min incubation: 2 μM, 37° C.
Method: WBS (whole blood stability) assay: The blood samples were collected freshly from multiple species including human, monkey, dog, rat and mouse. 2 μM of test compound and positive control were incubated with the whole blood at 37° C. at 0, 10, 30, 60, and 120 minutes in duplicate. After adding the stop solution, 200 μL of supernatant were analyzed by LC-MS/MS. The % remaining of test compound and T1/2 (min) were calculated and reported.

CD39 = CD39 (Homo sapiens, UniProt P49961); experiment: Selectivity panel (Table 3); type: biochemical
Sequence of CD39 (P49961 whole entry, species assumed): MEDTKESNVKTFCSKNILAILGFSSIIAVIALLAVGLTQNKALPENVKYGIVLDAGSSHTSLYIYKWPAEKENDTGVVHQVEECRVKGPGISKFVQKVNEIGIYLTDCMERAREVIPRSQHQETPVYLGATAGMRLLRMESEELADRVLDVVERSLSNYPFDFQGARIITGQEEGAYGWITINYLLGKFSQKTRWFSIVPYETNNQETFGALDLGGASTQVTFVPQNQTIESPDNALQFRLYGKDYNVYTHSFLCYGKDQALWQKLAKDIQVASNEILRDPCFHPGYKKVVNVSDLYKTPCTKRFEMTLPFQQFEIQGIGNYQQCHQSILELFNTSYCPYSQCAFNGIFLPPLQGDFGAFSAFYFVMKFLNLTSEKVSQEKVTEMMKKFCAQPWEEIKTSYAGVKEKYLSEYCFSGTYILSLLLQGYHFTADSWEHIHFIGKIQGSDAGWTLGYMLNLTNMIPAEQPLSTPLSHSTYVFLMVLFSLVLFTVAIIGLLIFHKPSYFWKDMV

Sequence of HDAC3 (O15379 whole entry, species assumed): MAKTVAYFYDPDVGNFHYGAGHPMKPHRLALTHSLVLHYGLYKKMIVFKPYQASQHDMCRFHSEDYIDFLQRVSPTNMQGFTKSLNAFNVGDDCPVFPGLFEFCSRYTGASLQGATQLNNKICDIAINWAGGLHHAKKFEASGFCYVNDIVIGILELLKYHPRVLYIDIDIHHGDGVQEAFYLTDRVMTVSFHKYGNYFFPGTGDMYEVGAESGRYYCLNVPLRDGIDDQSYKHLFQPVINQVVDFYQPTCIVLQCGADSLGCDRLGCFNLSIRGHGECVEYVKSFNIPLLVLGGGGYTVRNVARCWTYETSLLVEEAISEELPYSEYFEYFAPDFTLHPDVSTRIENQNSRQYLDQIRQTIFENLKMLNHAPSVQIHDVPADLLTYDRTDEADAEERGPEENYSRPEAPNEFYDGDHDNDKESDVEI
Sequence of HDAC3 (Q9Y618 395-489 partner limits assumed, species assumed): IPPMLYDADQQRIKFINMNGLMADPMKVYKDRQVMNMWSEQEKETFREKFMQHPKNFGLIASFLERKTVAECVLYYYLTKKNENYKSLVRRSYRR
Sequence of SHP2 WT (Q06124 whole entry): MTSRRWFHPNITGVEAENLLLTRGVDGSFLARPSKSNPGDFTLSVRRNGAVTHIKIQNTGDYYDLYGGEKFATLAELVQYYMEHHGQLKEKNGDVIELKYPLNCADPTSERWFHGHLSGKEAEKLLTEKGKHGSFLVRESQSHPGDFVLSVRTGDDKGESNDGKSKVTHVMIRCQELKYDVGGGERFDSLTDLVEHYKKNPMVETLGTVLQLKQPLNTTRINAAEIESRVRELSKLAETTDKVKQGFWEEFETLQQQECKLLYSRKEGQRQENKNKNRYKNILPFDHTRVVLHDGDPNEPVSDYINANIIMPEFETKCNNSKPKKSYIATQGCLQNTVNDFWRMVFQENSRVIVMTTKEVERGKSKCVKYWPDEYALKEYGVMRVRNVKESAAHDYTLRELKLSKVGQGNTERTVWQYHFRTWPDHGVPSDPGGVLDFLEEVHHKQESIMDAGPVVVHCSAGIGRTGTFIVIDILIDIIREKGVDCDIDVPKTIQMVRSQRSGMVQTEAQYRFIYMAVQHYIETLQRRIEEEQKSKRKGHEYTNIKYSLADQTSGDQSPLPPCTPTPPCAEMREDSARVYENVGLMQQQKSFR

Cc1c(F)c(N)cc(C(=O)Nc2cc(-n3cc(C(=O)N4CCN(C)CC4)nn3)c(F)cc2N2C[C@@H](C)N(C)[C@@H](C)C2)c1Cl [HYBI-084, 5-amino-2-chloro-4-fluoro-N-(4-fluoro-5-(4-(4-methylpiperazine-1-carbonyl)-1H-1,2,3-triazol-1-yl)-2-((3S,5R)-3,4,5-trimethylpiperazin-1-yl)phenyl)-3-methylbenzamide]
pIC50 (SHP2 WT): < 6.00 | pIC50 (HDAC3): < 6.00 | pIC50 (HDAC1): < 6.00 | pIC50 (MV 411 cells): 5.50 | pIC50 (TCPTP): < 6.00 | pIC50 (PTP1B): < 6.00 | half-life at 1 μM (Liver S9 stability assay [1]; Mouse liver S9): > 145 min | microsomal CLint at 1 μM (Liver S9 stability assay [1]; Mouse liver S9): < 4.8 µL/min/mg | % Remaining after 60 min incubation (Liver S9 stability assay [1]; Mouse liver S9, 1 μM, 5 mM GSH, 37° C.): 110% | pIC50 (SHP2 D61G): < 6.00 | pIC50 (TEAD2): < 6.00 | fraction unbound (in vitro [2]): < 0.07 | Relative Abundance (UV Peak Area % Total) (Metabolite ID in plasma): 93.47% | pIC50 (GLS1): < 6.00 | pIC50 (HDAC2): < 6.00 | pIC50 (BRD3-BD1): < 6.00 | pIC50 (KRAS G12D): < 6.00 | pIC50 (SHP2 E76K): < 6.00 | half-life at 1 μM (Liver S9 stability assay [3]; Human liver S9): > 145 min | microsomal CLint at 1 μM (Liver S9 stability assay [3]; Human liver S9): < 4.8 µL/min/mg | % Remaining after 60 min incubation (Liver S9 stability assay [3]; Human liver S9, 1 μM, 5 mM GSH, 37° C.): 85.1% | Relative Abundance (UV Peak Area % Total) [4]: 34.68% | pIC50 (hERG): 4.65 | pIC50 (MALTI): < 6.00 | fraction unbound (in vitro [5]): < 0.24 | half-life at 2 μM ([6]; Dog whole blood): > 144 min | % Remaining after 60 min incubation ([6]; Dog whole blood): 94.6% | half-life at 2 μM ([6]; Human whole blood): 616 min | % Remaining after 60 min incubation ([6]; Human whole blood): 110% | half-life at 2 μM ([6]; Mouse whole blood): > 144 min | % Remaining after 60 min incubation ([6]; Mouse whole blood): 108% | half-life at 2 μM ([6]; Rat whole blood): > 144 min | % Remaining after 60 min incubation ([6]; Rat whole blood): 109% | pIC50 (CD39): < 6.00
